Test results taken from PMC5321741, “Arylmethylamino steroids as antiparasitic agents” (Nature Communications, 2017).
“And” between values parts separate entries of the source, which are not always exact repeats. Identical values can stand only once.

Columns and labels:
[1] = test system: P. berghei GFP ANKA malaria strain; assay: P. berghei mouse model (Peter's test); format: in vivo, Plasmodium berghei in NMRI mice
Method: The animal experiments described here were performed at the Swiss Tropical and Public Health Institute (Swiss TPH, Basel, Switzerland), they were approved by the Swiss Cantonal Authorities (‘Kantonales Veterinäramt Basel Stadt') adhering to local and national regulations of laboratory animal welfare in Switzerland. The best compounds were tested in the murine P. berghei model essentially as described. The infection was initiated at day 0 with the P. berghei GFP ANKA malaria strain (donation from AP Waters and CJ Janse, Leiden University). From donor mice (female NMRI mice, 18–20 grams (about 3 weeks) from Charles River Germany) with ∼30% parasitaemia, heparinized blood was taken and diluted in physiological saline to 10^8 parasitized erythrocytes/ml. An aliquot (0.2 ml) of this suspension was injected intravenously into experimental and control groups of mice (female NMRI mice, 18–20 grams (about 3 weeks) from Charles River Germany). Usually, in untreated control mice parasitaemia rose regularly to ∼30% by day 3 post-infection. Control mice died between days 6 and 7 post infection. In the experiments described here, however, control animals (n=5) were killed on day 4 post infection for ethical reasons.
The steroid compounds were prepared at an appropriate concentration as a solution/suspension in Tween 80/alcohol (7:3, Tween 80 and absolute ethanol, respectively), followed by a 10x dilution in water. […] The route of administration was i.p., p.o., s.c. in a volume of 10 ml kg^−1.
The degree of infection (parasitaemia expressed in % of infected erythrocytes) was determined by FACS analysis on day 4 (96 h post infection). The difference of the mean infection rate of the control group (=100%) to the test group was calculated and expressed as a percent reduction. For example, activity determination with a mean of 2% parasitaemia in treated mice and a mean of 40% parasitaemia in the control animals is calculated as follows: (40−2%)/40% × 100=95% activity. The survival time in days was recorded up to 30 days after infection. A compound was considered curative if the animal survived to day 30 after infection with no detectable parasites (confirmed by light microscopy).

[2] = in vitro; format: cell-based; conditions: Human
Method: Furthermore, cytotoxicity tests were carried out on immortalized human hepatocytes, Fa2N-4 cells (XenoTech, cat.no. IFH15), at the Sanford-Burnham Medical Research Institute. Cells were incubated with a range of concentrations (0.01–50 μM) of compound 1o for 24 h. Cell viability was determined with cellular ATP levels by using the Luminescence ATP Detection Assay System (ATPlite 1 step).

[3] = test system: P. berghei transmission from mice to Anopheles gambiae mosquitoes; assay: in vivo transmission-blocking assay; set-up: species or system Plasmodium berghei; conditions: 100 mg kg−1 i.p. daily, three doses; 4 days post passage
Method: We further tested the activity of compound 1o on parasite transmission from mice to Anopheles gambiae mosquitoes. For this, P. berghei-infected mice received a daily injection of compound 1o for 3 days starting 24 h post passage and were exposed to mosquito bites 24 h after each injection. Tween 80 (Tw80) and methylene blue (MB) served as negative and positive controls, respectively. As with MB, compound 1o limited parasite multiplication in mice, albeit to a lesser extent (Fig. 3a). […]
Figure 3 Effect of compound 1o on P. berghei multiplication in mice and on parasite transmission to mosquitoes. […] Parasitemia was monitored daily and the mean± s.d. of three independent experiments are plotted. […] (b) Prevalence (percentage of infected mosquitoes) and (c) infection intensity (mean number of parasites per infected midgut) were determined 7 days post infectious blood feeding. […] Significance for differences between treatments was calculated using generalized linear models with treatment, time, and repeats as variables, ***P value <0.001 (a–c). n, number of mosquitoes. […] Survival of treated gametocytes was calculated for each concentration relative to parasites exposed to vehicle. […]
Parasitaemia was determined daily via FACS analysis (FACSCalibur, BD Bioscience). […]

[4] = 4x 100 mg/kg i.p., recorded up to 30 days
[5] = 4x 100 mg/kg p.o., recorded up to 30 days

COc1ccc2c(c1)CCC1C2CC[C@@]2(C)C1CC[C@H]2NCc1cc2ccccc2cc1O (stereo partly drawn) [1o]
% activity (reduction of parasitaemia) ([1]; 1x 100 mg/kg p.o.): 98% | % of control ([1]; 1x 100 mg/kg p.o.): 1.5% | Mouse survival in days, Average ([1]; 1x 100 mg/kg p.o.): 13 days | Mouse survival in days, individual mice M1-M3 ([1]; 1x 100 mg/kg p.o.): 14 days (2×) and 11 days | Parasitized RBC over 100, Average ([1]; 1x 100 mg/kg p.o.): 0.47 | Parasitized RBC over 100, individual mice M1-M3 ([1]; 1x 100 mg/kg p.o.): 0.30 and 0.60 and 0.50 | Parasitized RBC after 30 d (microscope), individual mice ([1]; 4x 100 mg/kg i.p.): 0.0 | % activity (reduction of parasitaemia) ([1]; 4x 100 mg/kg i.p., day 4): 99.8% | % of control ([1]; 4x 100 mg/kg i.p., day 4): 0.17% | Parasitized RBC over 100, Average ([1]; 4x 100 mg/kg i.p., day 4): 0.10 | Parasitized RBC over 100, individual mice M1-M3 ([1]; 4x 100 mg/kg i.p., day 4): 0.10 | Mouse survival in days, Average [1, 4]: > 30 days | Mouse survival in days, individual mice M1-M3 [1, 4]: 30 days | % activity (reduction of parasitaemia) ([1]; 4x 100 mg/kg p.o.): 99.8% | % of control ([1]; 4x 100 mg/kg p.o.): 0.22% | Parasitized RBC after 30 d (microscope), individual mice ([1]; 4x 100 mg/kg p.o.): 0.0 | Parasitized RBC over 100, Average ([1]; 4x 100 mg/kg p.o.): 0.13 | Parasitized RBC over 100, individual mice M1-M3 ([1]; 4x 100 mg/kg p.o.): 0.00 and 0.30 and 0.10 | Mouse survival in days, Average [1, 5]: 27 days | Mouse survival in days, individual mice M1-M3 [1, 5]: 30 days (2×) and 20 days | cure of mice ([1]; 4 × 100 mg kg−1 i.p.): all mice treated were cured | cure of mice ([1]; 4 × 100 mg kg−1 oral): two thirds of the animals were cured | CC50 at 24 h [2]: > 50 µM | parasite transmission to mosquitoes [3]: fully block parasite transmission to mosquitoes
